# Measured values from paper PMC2766634 (Journal of medicinal chemistry, 2009).
# Marks after values point to notes of the source that are not given here.
# Assays:
# [1] = Cyclic voltammetry in DMSO; format: physicochemical; details: for E1/2 in DMSO (half-wave potential, 0/−1 reduction), mean ± SE: cyclic voltammetry, 0.10 M NBu4PF6 in DMSO, 25 °C, 100 mV/s; for E1/2 more positive than Mz: in DMSO, relative to Mz
# [2] = test system: G. lamblia (WB/C6, GS/M, 106, and 713); assay: Antigiardial growth inhibition; format: cell-based, Giardia lamblia; details: for selectivity ratio, IC50/EC50: IC50 in HeLa cells / EC50 in Giardia
# HeLa cells = assay: Cytotoxicity assay; format: cell-based, human; details: for IC50: Homo sapiens, HeLa, 48 h, read-out: toxicity in HeLa cells, pIC50 (mean ± SE) (converted)
# [3] = Cyclic voltammetry in water pH 7.0; format: physicochemical; details: pH 7.0 phosphate buffer, 0.1 M KCl, 25 °C
# G. lamblia GS/M = assay: Murine G. lamblia infection model; format: in vivo, Giardia lamblia in C57BL/6 mice; details: mice, five doses over 3 days; for effect on infection (trophozoites in small intestine) at 2 mg/kg: 2 mg/kg oral gavage; for effect on infection (trophozoites in small intestine) at 10 mg/kg: 10 mg/kg oral gavage
Molecule,"E1/2 in DMSO (half-wave potential, 0/−1 reduction), mean ± SE [1]","selectivity ratio, IC50/EC50 [2]","Ep in water (peak potential), mean ± SE [3]",E1/2 more positive than Mz [1],effect on infection (trophozoites in small intestine) at 2 mg/kg (G. lamblia GS/M),effect on infection (trophozoites in small intestine) at 10 mg/kg (G. lamblia GS/M),other results
"Cn1c([N+](=O)[O-])cnc1/C=C/c1ccc2ccccc2c1 [compound 26, 1-Methyl-2-[(E)-2-(2-naphthyl)vinyl]-5-nitro-1H-imidazole]",−1.509 ± 0.001 V vs Fc,"1,622",–,–,–,–,IC50 (HeLa cells): 97.7 µM
"Cn1ccnc1/C=C/c1ncc([N+](=O)[O-])n1C [compound 28, 1-Methyl-2-[(E)-2-(1-methyl-1H-imidazol-2-yl)vinyl]-5-nitro-1H-imidazole]",−1.497 ± 0.001 V vs Fc,"1,202",−0.594 ± 0.014 V vs SCE,50–65 mV,significant activity,complete clearance of the infection,–
"Cn1c([N+](=O)[O-])cnc1/C=C/c1ccccc1 [compound 5, 1-Methyl-5-nitro-2-[(E)-2-phenylvinyl]-1H-imidazole]",−1.517 ± 0.001 V vs Fc,–,−0.634 ± 0.004 V vs SCE,30–50 mV,–,complete clearance of the infection,–
"Cc1ncc([N+](=O)[O-])n1CCO [Mz, metronidazole, reference compound]",–,–,–,–,no significant effect,not parasite eradication,–
"Cc1ccc(C(Br)C(Br)c2ncc([N+](=O)[O-])n2C)cc1 (stereo not shown) [compound 3, reference compound]",−1.489 ^d ± 0.001 V vs Fc,–,–,–,–,–,increased antigiardial activity over Mz ([2]; relative to Mz): 40 fold; selectivity ratio lower than that of Mz ([2]; relative to Mz): > 10 fold; more toxic than Mz in HeLa (HeLa cells; relative to Mz): > 500 fold
"Cn1c([N+](=O)[O-])cnc1/C=C/c1cccc(F)c1 [compound 19, 2-[(E)-2-(3-Fluorophenyl)vinyl]-1-methyl-5-nitro-1H-imidazole]",−1.502 ± 0.001 V vs Fc,–,−0.613 ± 0.008 V vs SCE,–,significant activity,complete clearance of the infection,–
"Cn1c([N+](=O)[O-])cnc1/C=C/c1ccco1 [compound 29, 2-[(E)-2-(2-Furyl)vinyl]-1-methyl-5-nitro-1H-imidazole]",−1.504 ± 0.003 V vs Fc,"2,754",–,50–65 mV,–,complete clearance of the infection,IC50 (HeLa cells): 93.3 µM
"Cn1c([N+](=O)[O-])cnc1/C=C/c1ccc(Br)cc1 [compound 12, 2-[(E)-2-(4-Bromophenyl)vinyl]-1-methyl-5-nitro-1H-imidazole]",−1.506 ± 0.002 V vs Fc,–,−0.605 ± 0.007 V vs SCE,–,no significant activity,no significant activity,–
"2-[(E)-2-(3a,7a-Dihydro-1,3-benzodioxol-5-yl)vinyl]-1-methyl-5-nitro-1H-imidazole [compound 27]",−1.584 ± 0.001 V vs Fc,"1,072",−0.778 ± 0.002 V vs SCE,–,–,–,"Activity against G. lamblia pEC50 (mean ± SE) ([2]; mean ± SE of average pEC50 of four isolates (WB/C6, GS/M, 106, 713)): 7.16 ± 0.34; toxicity in HeLa cells, pIC50 (mean ± SE) (HeLa cells; 2 days culture, three separate experiments): 4.13 ± 0.10"
